Reference: patent US10307409B2, “Muscarinic combinations and their use for combating hypocholinergic disorders of the central nervous system” (Chase Pharmaceuticals Corporation, priority 2015, dated 2019)

Tests used:
[1] = system: primate; conditions: primate study, domperidone administered with BuTAC; cited from earlier work
[2] = system: Male Swiss mice; assay: Dose-response to xanomeline in a mouse model of diarrhea (fecal pellet count); format: in vivo; conditions: xanomeline i.p. 0.3 to 30 mg/kg
From the text: Male Swiss mice (4-6 weeks old), N=10 per treatment group were used, and treated intra-peritoneally (i.p.) with either vehicle (vehicle group) or increasing doses of xanomeline, a representative muscarinic agonist. Mice were randomly assigned to one of two experimental groups (vehicle; or increasing doses of xanomeline). Each animal was identified by its group name, cage number, series (day) of experiment, and number (1 to 10) written with permanent ink on the tail.
Mice were placed individually in cages without any bedding materials. During the experiment the number of fecal pellets were counted at different time-points, starting one hour before the time of the administration of the test compound (T0), as outlined below: • T−1 h to T0: counting of the accumulated fecal pellets excreted. • T0: administration of the test compound, • T0 to T+2 h: counting of the accumulated fecal pellets excreted. • T+2 h to T+4 h: counting of the accumulated fecal pellets excreted.
(§1) The total number of fecal pellets for each mouse was counted over time. An analysis of variance (ANOVA) was performed on the results. Fisher's Protected Least Significant Difference was used for pairwise comparisons; p values ≤0.05 were considered significant. Grubbs' test (http://www.graphpad.com/quickcs/Grubbs1.cfm) was used to detect outliers for each parameter in each experimental group.

[3] = clinical study, Sramek 1995; cited from earlier work
[4] = system: patients with Alzheimer disease; assay: Xanomeline 6-month double-blind, placebo-controlled, parallel group trial in Alzheimer disease patients; format: in vivo, human; conditions: in view of Mirza 2003; i.e. 225 mg/day
From the text: A close analog of tazomeline, the 3-(4-hexyloxy-1,2,5-thiadiazol-3-yl)-1-methyl-5,6-dihydro-2H-pyridine known as xanomeline and described in U.S. Pat. No. 5,043,345, the disclosure of which is incorporated herein by reference in its entirety, has been disclosed as a muscarinic acetylcholine receptor agonist with reasonable selectivity for the M1 and M4 subtypes. The efficacy of xanomeline, which stimulates muscarinic receptors in the brain and in the periphery was studied in patients with Alzheimer disease in a 6-month double-blind, placebo-controlled, parallel group trial. […] Such side effects prevented the use of doses of xanomeline that could achieve maximum anti-dementia efficacy and reflect stimulation of cholinergic receptors outside the brain.
Dose-limiting adverse events attending the use of drugs that stimulate cholinergic transmission, such as xanomeline, appear to primarily reflect the excessive stimulation of peripheral cholinergic receptors, especially those of the muscarinic type (mAChRs), such that in both healthy volunteers and Alzheimer's patients many of these side effects have been reported for xanomeline; in the patient population this led to a discontinuation rate higher than 50% while the effects on cognition were not robust and mainly seen at the highest doses tested (Mirza2003).

[5] = system: patients with Alzheimer disease; conditions: cited from earlier work
[6] = clinical trials, Alzheimer disease; cited from earlier work
[7] = transdermal [14C]oxybutynin, rats; cited from earlier work
[8] = system: Male Swiss mice; assay: T-maze continuous alternation task (T-CAT) with oxybutynin and xanomeline; format: in vivo; conditions: i.p. oxybutynin pretreatment 30 min before xanomeline
From the text: The T-maze continuous alternation task (T-CAT) is useful as model for studying compounds with cognitive enhancing properties. The T-maze consists of 2 choice arms and 1 start arm mounted to a square center. Manual doors are provided to close specific arms during the force choice alternation task.
Male Swiss mice (4-6 weeks old), N=10 per treatment group were used, and were pretreated with: • Oxybutynin at the dose that blocked fecal pellet excretion in Study 2 of Example 1.
Mice were randomly assigned to one of the different experimental treatment groups. Each animal was identified by its group name, cage number, series (day) of experiment, and number (1 to 10) written with permanent ink on the tail.
The T-maze apparatus is made of gray Plexiglas with a main stem (55 cm long×10 cm wide×20 cm high) and two arms (30 cm long×10 cm wide×20 cm high) positioned at 90 degree angle relative to the main stem. A start box (15 cm long×10 cm wide) is separated from the main stem by a guillotine door. […]
The percentage of alternation over the 14 free-choice trials was determined for each mouse and was used as an index of working memory performance. […]
Analysis of variance (ANOVA) was performed on the results. […] The drug-induced improvement of memory was calculated by setting the respective response of the saline/vehicle as 100% and that of the test group as 0% reversion. […]

[9] = system: Male Swiss mice; assay: Antagonism of xanomeline-induced diarrhea in mice by oxybutynin (fecal pellet count); format: in vivo; conditions: i.p. oxybutynin 0.3 to 30 mg/kg, 30 min before xanomeline 30 mg/kg
Experimental: Male Swiss mice (4-6 weeks old), N=10 per treatment group were used. Animals were pretreated with i.p. oxybutynin (a representative peripheral muscarinic receptor antagonist) or vehicle; 30 minutes later animals were treated with xanomeline at a dose of 30 mg/kg that caused diarrhea (as determined in Experiment 1). The dose of oxybutynin ordinarily ranged from 0.3 to 30 mg/kg.
Mice were placed individually in cages without any bedding materials. During the experiment the number of fecal pellets was counted at different time-points as outlined below: • T−1 h to T0: counting of the accumulated fecal pellets excreted. • T0: administration of oxybutinin. • T30 min: administration of vehicle or xanomeline. • T 30 min to T 2.5 h: counting of accumulated fecal pellets excreted. • T+2.5 h to T+4.5 h: counting of accumulated fecal pellets excreted.
as §1, with “comparisons. The” for “comparisons;”, “value” for “values”, “(http//www atgraphpad.com/quickcalcs/Grubbs1.cfm)” for “(http://www.graphpad.com/quickcs/Grubbs1.cfm)”

O=c1[nH]c2ccccc2n1CCCN1CCC(n2c(=O)[nH]c3cc(Cl)ccc32)CC1 [domperidone, 5-chloro-1-(1-[3-(2-oxo-2,3-dihydro-1H-benzo[d]imidazol-1-yl)propyl]piperidin-4-yl)-1H-benzo[d]imidazol-2(3H)-one]
effect on BuTAC-induced vomiting [1]: mitigated

CCCCCCOc1nsnc1C1=CCCN(C)C1 [xanomeline, 3-(4-hexyloxy-1,2,5-thiadiazol-3-yl)-1-methyl-5,6-dihydro-2H-pyridine]
diarrhea (fecal pellets excreted) [2]: dose-dependently causes diarrhea | MTD [3]: 100 mg three times a day | maximum tolerated dose as considered in the context of the present invention [4]: 75 mg three times per day | patients who discontinued treatment ([5]; 75 mg xanomeline orally three times daily, 6-month study, mainly adverse events, predominantly gastrointestinal): 59% | cognitive and behavioral symptoms of Alzheimer disease compared to placebo ([5]; 6-month trial (Bodick 1997; Shekhar 2008)): significantly improve cognitive and behavioral symptoms | side effects (bradycardia, gastro-intestinal distress, excessive salivation, sweating) ([5]; 6-month trial): dose-dependent unacceptable side effects | discontinuation rate in the patient population ([5]; Alzheimer's patients (Mirza 2003)): higher than 50%

CO/N=C/C1=CCCN(C)C1 [milameline, (E)-N-methoxy-1-(1-methyl-1,2,5,6-tetrahydropyridin-3-yl)methanimine]
maximum tolerated dose [6]: 2 mg four times per day

CCN(CC)CC#CCOC(=O)C(O)(c1ccccc1)C1CCCCC1 (stereo not drawn) [oxybutynin, 4-diethylaminobut-2-ynyl 2-cyclohexyl-2-hydroxy-2-phenylethanoate]
brain penetration of radiolabel [7]: presence of radiolabel in the brain | ability to perform the T-maze test after oxybutynin pretreatment [8]: restored the animals' ability to perform the T-maze test | antagonism of xanomeline-induced diarrhea [9]: dose-dependently antagonized the diarrhea induced by xanomeline
